This is an account of results in PubChem BioAssay (NCI).

Among the test systems are SN12K1 renal; DMS 114 small cell lung; P388 leukemia; KM20L2 colon; XF 498 CNS; HOP-18 NSCLC; LXFL 529 NSCLC; P388/ADR leukemia.
Common to all, as to assay: NCI tumour cell line growth inhibition, 48 h

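Following 48 hours of exposure in 96-well plates, responses at five concentrations were used to interpolate endpoints linearly. TGI: concentration producing complete growth inhibition.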

Turning to `Cc1c2cnccc2c(C)c2c1c1ccccc1n2CCCCCCNCc1ccccc1`, the TGI turned out to be 1.9 µM in the assay on SN12K1 renal; 3.94 µM in the assay on DMS 114 small cell lung; 0.732 µM in the assay on P388 leukemia; 3.33 µM in the assay with KM20L2 colon; 4.37 µM with XF 498 CNS; 0.923 µM in the assay with HOP-18 NSCLC.
`CN1CCC(CN2c3ccccc3Sc3ccccc32)CC1`: the TGI was 29.8 µM with DMS 114 small cell lung; 25.8 µM in the assay with KM20L2 colon; 27.5 µM in the assay on LXFL 529 NSCLC; 23.9 µM in the assay with XF 498 CNS; 27.5 µM in the assay on HOP-18 NSCLC.
Regarding `CNC(=O)N(C)COC`, the TGI in the assay on DMS 114 small cell lung, with KM20L2 colon, in the assay on LXFL 529 NSCLC, with XF 498 CNS and with HOP-18 NSCLC was > 100 µM each time.
On to `O=C(O)c1cn2c3c(cc(N4CCN(CCO)CC4)cc3c1=O)SCC2`, for which the TGI with SN12K1 renal is > 100 µM; in the assay with DMS 114 small cell lung it was > 100 µM; in the assay with P388 leukemia, > 100 µM; in the assay on P388/ADR leukemia it was > 100 µM; with KM20L2 colon it was > 100 µM; in the assay with XF 498 CNS, 67.2 µM. In addition, in the assay on HOP-18 NSCLC, the TGI is > 100 µM.
